Data: ChEMBL document CHEMBL4311957, “Recent advances in natural antifungal flavonoids and their derivatives” (Bioorg Med Chem Lett, 2019)
In brackets after ≈: the same amount, converted by molar mass.

Tests used:
[1] = system: Candida albicans; assay: Synergistic antifungal activity against Candida albicans after 24 hrs in presence of Miconazole by checkerboard method; type: functional, organism-based
[2] = system: Candida albicans; assay: Antifungal activity against Candida albicans ATCC10231 at 50 ug/ml relative to control; type: functional; conditions: ATCC 10231
[3] = system: Candida albicans; assay: Antifungal activity against Candida albicans ATCC10231; type: functional; conditions: ATCC 10231
[4] = system: Candida albicans; assay: Antifungal activity against Candida albicans ATCC 90028 after 12 to 18 hrs by ELISA; type: functional
[5] = system: Malassezia furfur; assay: Antifungal activity against Malassezia furfur KCTC 7744 after 12 to 18 hrs by ELISA; type: functional
[6] = system: Trichosporon beigelii; assay: Antifungal activity against Trichosporon beigelii KCTC 7707 after 12 to 18 hrs by ELISA; type: functional
[7] = system: Candida parapsilosis; assay: Antifungal activity against Candida parapsilosis ATCC 22019 after 12 to 18 hrs by ELISA; type: functional; conditions: Lodderomyces parapsilosis
[8] = system: Trichophyton rubrum; assay: Antifungal activity against Trichophyton rubrum KCTC 6345 after 12 to 18 hrs by ELISA; type: functional
[9] = Inhibition of fatty acid synthase in Trichophyton rubrum ATCC MYA3108
[10] = system: Trichophyton rubrum; assay: Antifungal activity against Trichophyton rubrum ATCC MYA3108 by CLSI-based microdilution method; type: functional
[11] = system: Trichophyton rubrum; assay: Antifungal activity against Trichophyton rubrum deltaTruMDR2 by CLSI-based microdilution method; type: functional
[12] = Inhibition of fatty acid synthase in Trichophyton rubrum deltaTruMDR2
[13] = system: Candida albicans; assay: Antifungal activity against Candida albicans 498 by microdilution method; type: functional
[14] = system: Candida tropicalis; assay: Antifungal activity against Candida tropicalis 166 by microdilution method; type: functional
[15] = system: Nakaseomyces glabratus; assay: Antifungal activity against Candida glabrata 493 by microdilution method; type: functional
[16] = system: Candida tropicalis; assay: Antifungal activity against Candida tropicalis CCC 131-2000 after 48 hrs by CLSI-based broth microdilution method; type: functional; conditions: CCC 131-2000, 48 h
[17] = system: Nakaseomyces glabratus; assay: Antifungal activity against Candida glabrata 531 by microdilution method; type: functional
[18] = system: Pichia kudriavzevii; assay: Antifungal activity against Candida krusei 168 by microdilution method; type: functional
[19] = system: Candida albicans; assay: Antifungal activity against Candida albicans ATCC 10231 by microdilution method; type: functional
[20] = system: Candida albicans; assay: Antifungal activity against Candida albicans 501 by microdilution method; type: functional
[21] = system: Nakaseomyces glabratus; assay: Antifungal activity against Candida glabrata 510 by microdilution method; type: functional
[22] = system: Nakaseomyces glabratus; assay: Antifungal activity against Candida glabrata 507 by microdilution method; type: functional
[23] = system: Cryptococcus neoformans; assay: Antifungal activity against Cryptococcus neoformans by microdilution method; type: functional
[24] = system: Nakaseomyces glabratus; assay: Antifungal activity against Candida glabrata 587 by microdilution method; type: functional
[25] = system: Candida albicans; assay: Antifungal activity against Candida albicans 53 by microdilution method; type: functional
[26] = system: Candida albicans; assay: Antifungal activity against Candida albicans ATCC 10231 after 48 hrs by CLSI-based broth microdilution method; type: functional; conditions: ATCC 10231, 48 h
[27] = system: Nakaseomyces glabratus; assay: Antifungal activity against Candida glabrata 482 by microdilution method; type: functional
[28] = system: Candida parapsilosis; assay: Antifungal activity against Candida parapsilosis 96 by microdilution method; type: functional; conditions: Lodderomyces parapsilosis
[29] = system: Nakaseomyces glabratus; assay: Synergistic antifungal activity against FLC-resistant Candida glabrata ATCC1182 after 24 to 72 hrs in presence of FLC by checkerboard microbroth dilution method; type: functional
[30] = system: Nakaseomyces glabratus; assay: Synergistic antifungal activity against FLC-resistant Candida glabrata ATCC1182 after 24 to 72 hrs by checkerboard microbroth dilution method; type: functional
[31] = system: Candida parapsilosis; assay: Synergistic antifungal activity against FLC-resistant Candida parapsilosis ATCC 22019 after 24 to 72 hrs by checkerboard microbroth dilution method; type: functional; conditions: Lodderomyces parapsilosis
[32] = system: Candida parapsilosis; assay: Synergistic antifungal activity against FLC-resistant Candida parapsilosis ATCC 22019 after 24 to 72 hrs in presence of FLC by checkerboard microbroth dilution method; type: functional; conditions: Lodderomyces parapsilosis
[33] = system: Candida albicans; assay: Synergistic antifungal activity against FLC-resistant Candida albicans after 24 to 72 hrs in presence of FLC by checkerboard microbroth dilution method; type: functional
[34] = system: Pichia kudriavzevii; assay: Synergistic antifungal activity against FLC-resistant Candida krusei ATCC2340 after 24 to 72 hrs in presence of FLC by checkerboard microbroth dilution method; type: functional
[35] = system: Candida tropicalis; assay: Synergistic antifungal activity against FLC-resistant Candida tropicalis 2718 after 24 to 72 hrs by checkerboard microbroth dilution method; type: functional
[36] = system: Candida tropicalis; assay: Synergistic antifungal activity against FLC-resistant Candida tropicalis 2718 after 24 to 72 hrs in presence of FLC by checkerboard microbroth dilution method; type: functional
[37] = system: Cryptococcus neoformans; assay: Synergistic antifungal activity against FLC-resistant Cryptococcus neoformans 32609 after 24 to 72 hrs in presence of FLC by checkerboard microbroth dilution method; type: functional
[38] = system: Candida albicans; assay: Synergistic antifungal activity against FLC-resistant Candida albicans after 24 to 72 hrs by checkerboard microbroth dilution method; type: functional
[39] = system: Cryptococcus neoformans; assay: Synergistic antifungal activity against FLC-resistant Cryptococcus neoformans 32609 after 24 to 72 hrs by checkerboard microbroth dilution method; type: functional
[40] = system: Pichia kudriavzevii; assay: Synergistic antifungal activity against FLC-resistant Candida krusei ATCC2340 after 24 to 72 hrs by checkerboard microbroth dilution method; type: functional
[41] = system: Trichosporon beigelii; assay: Antifungal activity against Trichosporon beigelii KCTC 7707 by ELISA; type: functional
[42] = system: Trichophyton rubrum; assay: Antifungal activity against Trichophyton rubrum KCTC 6345 by ELISA; type: functional
[43] = system: Candida albicans; assay: Antifungal activity against Candida albicans ATCC 90028 by ELISA; type: functional
[44] = system: Malassezia furfur; assay: Antifungal activity against Malassezia furfur KCTC 7744 by ELISA; type: functional
[45] = system: Candida parapsilosis; assay: Antifungal activity against Candida parapsilosis ATCC 22019 by ELISA; type: functional; conditions: Lodderomyces parapsilosis
[46] = system: Cryptococcus neoformans; assay: Antifungal activity against Cryptococcus neoformans by CLSI-based microdilution method; type: functional
[47] = system: Candida tropicalis; assay: Antifungal activity against FLC-resistant Candida tropicalis in presence of FLC; type: functional
[48] = system: Candida tropicalis; assay: Antifungal activity against FLC-resistant Candida tropicalis; type: functional

Structure (SMILES): COc1ccc(-c2cc(=O)c3c(O)cc(OC)cc3o2)cc1 [APIGENIN DIMETHYLETHER]
- IC50 [1]: 51.6 µg/mL

Structure (SMILES): O=c1cc(-c2ccc(O)cc2)oc2cc(O)cc(O)c12 [APIGENIN]
- inhibition at 50 µg/mL [2]: 99.8%
- MIC [3]: 125 µg/mL (≈ 463 µM)
- MIC [4]: 5 µg/mL (≈ 18.5 µM)
- MIC [5]: 5 µg/mL (≈ 18.5 µM)
- MIC [6]: 5 µg/mL (≈ 18.5 µM)
- MIC [7]: 5 µg/mL (≈ 18.5 µM)
- MIC [8]: 5 µg/mL (≈ 18.5 µM)

Structure (SMILES): O=C(/C=C/c1ccccc1)c1ccccc1 [CHALCONE]
- IC50 [9]: 68.23 µg/mL (≈ 328 µM)
- MIC [10]: 7.5 µg/mL (≈ 36 µM)
- MIC [11]: 1.9 µg/mL (≈ 9.12 µM)
- IC50 [12]: 17.1 µg/mL (≈ 82.1 µM)

Structure (SMILES): O=c1c(O)c(-c2ccccc2)oc2cc(O)cc(O)c12 [GALANGIN]
- MIC [13]: > 83 µg/mL
- MIC [14]: > 83 µg/mL
- MIC [15]: 15.6 to 62.5 µg/mL (≈ 57.7 to 231 µM)
- MIC [16]: 31.2 µg/mL (≈ 115 µM)
- MIC [10]: > 1000 µg/mL
- MIC [17]: 15.6 to 62.5 µg/mL (≈ 57.7 to 231 µM)
- MIC [11]: > 1000 µg/mL
- MIC [18]: > 83 µg/mL
- MIC [19]: > 83 µg/mL
- MIC [20]: > 83 µg/mL
- MIC [21]: 15.6 to 62.5 µg/mL (≈ 57.7 to 231 µM)
- MIC [22]: 15.6 to 62.5 µg/mL (≈ 57.7 to 231 µM)
- MIC [23]: 31.2 µg/mL (≈ 115 µM)
- MIC [24]: 15.6 to 62.5 µg/mL (≈ 57.7 to 231 µM)
- MIC [25]: > 83 µg/mL
- MIC [26]: 31.2 µg/mL (≈ 115 µM)
- MIC [27]: 15.6 to 62.5 µg/mL (≈ 57.7 to 231 µM)
- MIC [28]: > 83 µg/mL

Structure (SMILES): CC1(C)C=Cc2c(ccc3c2OC[C@@H](c2ccc(O)cc2O)C3)O1 [GLABRIDIN]
- MIC [29]: 1 to 16 µg/mL
- MIC [30]: 64 µg/mL
- MIC [31]: 64 µg/mL
- MIC [32]: 1 to 16 µg/mL
- MIC [33]: 64 µg/mL
- MIC [34]: 1 to 16 µg/mL
- MIC [35]: 64 µg/mL
- MIC [36]: 1 to 16 µg/mL
- MIC [37]: 16 to 64 µg/mL
- MIC [38]: 32 µg/mL
- MIC [39]: 16 µg/mL
- MIC [40]: 16 to 64 µg/mL

Structure (SMILES): O=c1c(O[C@@H]2O[C@H](CO)[C@@H](O)[C@H](O)[C@H]2O)c(-c2ccc(O)c(O)c2)oc2cc(O)cc(O)c12 [ISOQUERCETIN]
- MIC [41]: 5 µg/mL (≈ 10.8 µM)
- MIC [42]: 2.5 µg/mL (≈ 5.38 µM)
- MIC [43]: 2.5 µg/mL (≈ 5.38 µM)
- MIC [44]: 2.5 to 5 µg/mL (≈ 5.38 to 10.8 µM)
- MIC [45]: 2.5 µg/mL (≈ 5.38 µM)

Structure (SMILES): O=c1c(O)c(-c2ccc(O)c(O)c2)oc2cc(O)cc(O)c12 [QUERCETIN]
- MIC [13]: > 83 µg/mL
- MIC [14]: > 83 µg/mL
- MIC [15]: 7.8 to 15.8 µg/mL (≈ 25.8 to 52.3 µM)
- MIC [46]: > 125 µg/mL
- MIC [10]: 125 µg/mL (≈ 414 µM)
- MIC [17]: 7.8 to 15.8 µg/mL (≈ 25.8 to 52.3 µM)
- MIC [11]: 125 µg/mL (≈ 414 µM)
- MIC [18]: > 83 µg/mL
- MIC [19]: > 83 µg/mL
- MIC [20]: > 83 µg/mL
- MIC [21]: 7.8 to 15.8 µg/mL (≈ 25.8 to 52.3 µM)
- MIC [22]: 7.8 to 15.8 µg/mL (≈ 25.8 to 52.3 µM)
- MIC [47]: 16 µg/mL
- MIC [24]: 7.8 to 15.8 µg/mL (≈ 25.8 to 52.3 µM)
- MIC [25]: > 83 µg/mL
- MIC [48]: ≤ 0.5 µg/mL
- MIC [27]: 7.8 to 15.8 µg/mL (≈ 25.8 to 52.3 µM)
- MIC [28]: > 83 µg/mL
